Assay results from patent publication US20200239969A1, “METHODS AND COMPOSITIONS FOR USE OF TREX2 AS DIAGNOSTIC AND PROGNOSTIC MARKER FOR CANCER” (THE BOARD OF REGENTS OF THE UNIVERSITY OF TEXAS SYSTEM, priority 2017, published 2020).

Tests used:
[1] = test system: RAD51^K133A expressing cells; assay: miniHPRT loss of heterozygosity (LOH) assay, TG-resistant cells; assay type: cell-based, mouse; conditions: control versus compounds p<0.018, average of three replicates, FIG. 8A
Description: To evaluate loss of heterozygosity, the loss of function (LOF) of miniHPRT was measured by survival in 6-TG. ES cells were grown in 1× hypoxanthine, aminopterin, thymidine (HAT) for at least 4 days followed by growth in 1× HT for 2 days and then no selection for 1 day. Cells were counted and seeded at 2×10^5 cells/10 cm feeder plates (3 plates) and selected in 10 μM 6-thioguanine (6-TG). For plating efficiency, 2000 cells were seeded on two wells of 6-well feeder plate. Eight days after plating, the number of 6-TG resistant colonies was counted. […] That is >159-fold difference. The average of three biological replicates are presented (p<0.0001 for lane 4 versus lanes 5 and 6, unpaired student T test). Deletion of TREX2 in HsRAD51^K133A expressing cells reduces loss of heterozygosity to levels lower than in wild type cells. Therefore, TREX2 caused greatest loss of heterozygosity and gross chromosomal rearrangements in HR-defective cells.
TREX2-deletion also imparts a synthetic phenotype in HR-mutant and MMR-mutant cells to hydroxyurea (HU) and camptothecin (CPT). Both CPT and HU stall RFs and are used for cancer therapy. CPT binds type 1 […] to DNA to cause a break when a replication fork collides into it while HU inhibits ribonucleotide reductase to deplete nucleotides. Therefore, TX2Is enhance cytotoxicity of chemotherapeutic agents in cancer cells while protecting the patient from mutations to reduce the risk of therapy-related disease. RAD51^K133A was expressed in mouse ES cells to negatively alter HR. In these HR defective cells, TREX2-deletion decreased survival to camptothecin and reduced loss of heterozygosity (LOH) to levels lower than cells expressing RAD51 wild type (WT) and TREX2 WT. LOH is loss of miniHPRT, which can be scored as resistance to 6-thioguanine (TG). FIGS. 5A and 5B are graphical representations of the effects of TREX2-deletions measured as survival fractions. […] The average of three biological replicates are presented.
Compounds #1, 6, and 10 reduce LOH in RAD51^K133A expressing cells using miniHPRT. […]

msh2^−/− cells = assay: puro(A)10 polymerase slippage assay, puromycin resistant colonies; assay type: cell-based, mouse; conditions: puro(A)10 reporter, 10 μM TREX2 inhibitor, colonies counted about day 10, DMSO versus compounds p<0.02, FIGS. 8B, 8C
[2] = test system: mouse embryonic stem (ES) cells; assay: reduction of mutations in mouse ES cells by screening hits; assay type: cell-based; conditions: five of nineteen screening hits
Excerpt: Assays as described here were used to screen a Chembridge Diverset library (30,000 compounds). […] These small molecules are: 4-benzoyl-2-methyphenyl (2-nitrophenoxy) acetate; N-benzyl-2-([bis(furan-2-yl)-1,2,4-triazin-3-yl] sulfanyl) acetamide; 6-(benzylcarbamoyl)-1-methycyclohex-3-ene-1-carboxylic acid; 8-(phenylamino)naphthalene-1-sulfonic acid; and benzyl 6-(furan-2-yl)-3-methyl-4-oxo-4,5,6,7-tetrahydro-1H-indole-2-carboxylate. […] TX2Is appear to be nontoxic to cells and TREX2-deletion was asymptomatic for >50% of life span.

ES cells = assay: response of ES cells to hydroxyurea (RPA32 phosphorylation, chromatid breaks)

Row | SMILES | LOH (percentage of TG-resistant cells) [1] | spontaneous polymerase slippage (fraction of puromycin resistant cells) (msh2^−/− cells) | effect on mutations in mouse ES cells [2] | chromatid breaks (ES cells; high HU dose) | DNA damage response (RPA32 phosphorylation) (ES cells; high HU dose (4 mM, 5 hours)) | DNA damage response (RPA32 phosphorylation) (ES cells; low HU dose (0.5 mM, 1.5 hours))
1 | Cc1cc(C(=O)c2ccccc2)ccc1OC(=O)COc1ccccc1[N+](=O)[O-] [Compound 1, 4-benzoyl-2-methyphenyl (2-nitrophenoxy) acetate] | reduce LOH | reduce spontaneous polymerase slippage | reduce a range of mutations | – | – | –
2 | O=S(=O)(O)c1cccc2cccc(Nc3ccccc3)c12 [Compound 6, 8-(phenylamino)naphthalene-1-sulfonic acid] | reduce LOH | reduce spontaneous polymerase slippage | reduce a range of mutations | – | – | –
3 | O=C(CSc1nnc(-c2ccco2)c(-c2ccco2)n1)NCc1ccccc1 [Compound 10, N-benzyl-2-([bis(furan-2-yl)-1,2,4-triazin-3-yl]sulfanyl) acetamide] | reduce LOH | reduce spontaneous polymerase slippage | reduce a range of mutations | – | – | –
4 | CC1(C(=O)O)CC=CCC1C(=O)NCc1ccccc1 (stereo not drawn) [Compound 11, 6-(benzylcarbamoyl)-1-methycyclohex-3-ene-1-carboxylic acid] | – | reduce spontaneous polymerase slippage | reduce a range of mutations | – | – | –
5 | NC(=O)NO [HU, hydroxyurea] | – | – | – | produced more chromatid breaks | induced both an ATR and a DNA-PKCS response | induced an ATR response
6 | Cc1c(C(=O)OCc2ccccc2)[nH]c2c1C(=O)CC(c1ccco1)C2 (stereo not drawn) [benzyl 6-(furan-2-yl)-3-methyl-4-oxo-4,5,6,7-tetrahydro-1H-indole-2-carboxylate] | – | – | reduce a range of mutations | – | – | –
